# Laboratory results published in paper PMC10819771 (Pharmaceuticals, 2023).
# System: F21T (DNA, G4) GGGTTAGGGTTAGGGTTAGGG
# Assay: FRET melting
# Settings: 10 mM K+, 90 mM Li+; 10 mM lithium cacodylate pH 7.2; 0.2 µM DNA, 2 µM compound
smiles,measurement,value
"CN1CCN(CCCCNCc2ccc(-c3nc(-c4ccc(CNCCCCN5CCN(C)CC5)cc4)c4cc(-c5ccccc5)ccc4n3)cc2)CC1 [Compound 12e, 2,4-bis{4-[(4-(4-methylpiperazin-1-yl)butyl)aminomethyl]phenyl}-6-phenylquinazoline]",ΔT1/2,33.9 ± 0.5 °C
